# According to the supplement of paper PMC4862054:
# Test system: HCC1937
# Test: normalised response (% of control), CellTox Green; higher = less cell death (100 = DMSO, 0 = benzethonium chloride kill control)
# Conditions: incubation time: 72 h
# How it was run: (§1)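 A 20 µl suspension of breast cancer cells was seeded into each well of 384-well plates containing compound at 5 concentrations in 10-fold steps over a compound-specific 10,000-fold range. After 72 h incubation, CellTox Green fluorescence (485/520 nm) was read first, and CellTiter-Glo luminescence was read after 10 min at room temperature. Each plate was normalised against 0.1 % DMSO (100) and a positive kill control (0), and each value is the normalised signal at one concentration.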
row,SMILES,normalised response [%]
1,Cn1cc(C2=C(c3cn(C4CCN(Cc5ccccn5)CC4)c4ccccc34)C(=O)NC2=O)c2ccccc21 [Enzastaurin] (100 nM),102
2,Nc1ccn([C@@H]2O[C@H](CO)[C@@H](O)C2(F)F)c(=O)n1 [Gemcitabine] (10 nM),111
3,O=C(CCCCCCC(=O)Nc1ccccc1)NO [Vorinostat] (100 nM),102

# Test system: BT-549
# Test: as above
# Conditions: incubation time: 72 h
# How it was run: as §1
row,SMILES,normalised response [%]
1,Cc1cc(Nc2nc(N[C@@H](C)c3ncc(F)cn3)ncc2Cl)[nH]n1 [AZD1480] (10 nM),65.3
2,CC1(COc2ccc3c(c2)ncn3-c2ccc3cccc(N4CCC(N)CC4)c3n2)COC1 [Crenolanib] (100 nM),89.1
3,Cn1cc(C2=C(c3cn(C4CCN(Cc5ccccn5)CC4)c4ccccc34)C(=O)NC2=O)c2ccccc21 [Enzastaurin] (100 nM),95.4
4,Nc1ccn([C@@H]2O[C@H](CO)[C@@H](O)C2(F)F)c(=O)n1 [Gemcitabine] (10 nM),92.5
5,C=CCn1c(=O)c2cnc(Nc3ccc(N4CCN(C)CC4)cc3)nc2n1-c1cccc(C(C)(C)O)n1 [MK1775] (100 nM),105
6,CO[C@@H]1[C@H](N(C)C(=O)c2ccccc2)C[C@H]2O[C@]1(C)n1c3ccccc3c3c4c(c5c6ccccc6n2c5c31)C(=O)NC4 [Midostaurin] (100 nM),88.8
7,CCNC(=O)c1noc(-c2cc(C(C)C)c(O)cc2O)c1-c1ccc(CN2CCOCC2)cc1 [NVP-AUY922] (10 nM),81.9
8,O=[N+]([O-])c1ccc2c(c1)S(=O)(=O)C=C2 [Stattic] (500 nM),102
9,O=C(CCCCCCC(=O)Nc1ccccc1)NO [Vorinostat] (100 nM),96.8

# Test system: MDA-MB-436
# Test: as above
# Conditions: incubation time: 72 h
# How it was run: as §1
row,SMILES,normalised response [%]
1,Cc1cc(Nc2nc(N[C@@H](C)c3ncc(F)cn3)ncc2Cl)[nH]n1 [AZD1480] (10 nM),73.2
2,Cn1cc(C2=C(c3cn(C4CCN(Cc5ccccn5)CC4)c4ccccc34)C(=O)NC2=O)c2ccccc21 [Enzastaurin] (100 nM),86
3,Nc1ccn([C@@H]2O[C@H](CO)[C@@H](O)C2(F)F)c(=O)n1 [Gemcitabine] (10 nM),97.1
4,C=CCn1c(=O)c2cnc(Nc3ccc(N4CCN(C)CC4)cc3)nc2n1-c1cccc(C(C)(C)O)n1 [MK1775] (100 nM),63.2
5,CO[C@@H]1[C@H](N(C)C(=O)c2ccccc2)C[C@H]2O[C@]1(C)n1c3ccccc3c3c4c(c5c6ccccc6n2c5c31)C(=O)NC4 [Midostaurin] (100 nM),93.9
6,CCNC(=O)c1noc(-c2cc(C(C)C)c(O)cc2O)c1-c1ccc(CN2CCOCC2)cc1 [NVP-AUY922] (10 nM),70.9
7,O=[N+]([O-])c1ccc2c(c1)S(=O)(=O)C=C2 [Stattic] (500 nM),95.3
8,O=C(CCCCCCC(=O)Nc1ccccc1)NO [Vorinostat] (100 nM),74.1

# Test system: CAL-51
# Test: as above
# Conditions: incubation time: 72 h
# How it was run: as §1
row,SMILES,normalised response [%]
1,Cc1cc(Nc2nc(N[C@@H](C)c3ncc(F)cn3)ncc2Cl)[nH]n1 [AZD1480] (10 nM),111
2,CC1(COc2ccc3c(c2)ncn3-c2ccc3cccc(N4CCC(N)CC4)c3n2)COC1 [Crenolanib] (100 nM),90.2
3,Cn1cc(C2=C(c3cn(C4CCN(Cc5ccccn5)CC4)c4ccccc34)C(=O)NC2=O)c2ccccc21 [Enzastaurin] (100 nM),104
4,Nc1ccn([C@@H]2O[C@H](CO)[C@@H](O)C2(F)F)c(=O)n1 [Gemcitabine] (10 nM),84.7
5,C=CCn1c(=O)c2cnc(Nc3ccc(N4CCN(C)CC4)cc3)nc2n1-c1cccc(C(C)(C)O)n1 [MK1775] (100 nM),82.8
6,CO[C@@H]1[C@H](N(C)C(=O)c2ccccc2)C[C@H]2O[C@]1(C)n1c3ccccc3c3c4c(c5c6ccccc6n2c5c31)C(=O)NC4 [Midostaurin] (100 nM),74.1
7,CCNC(=O)c1noc(-c2cc(C(C)C)c(O)cc2O)c1-c1ccc(CN2CCOCC2)cc1 [NVP-AUY922] (10 nM),118
8,O=[N+]([O-])c1ccc2c(c1)S(=O)(=O)C=C2 [Stattic] (500 nM),108
9,O=C(CCCCCCC(=O)Nc1ccccc1)NO [Vorinostat] (100 nM),86.3

# Test system: MDA-MB-453
# Test: as above
# Conditions: incubation time: 72 h
# How it was run: as §1
row,SMILES,normalised response [%]
1,Cc1cc(Nc2nc(N[C@@H](C)c3ncc(F)cn3)ncc2Cl)[nH]n1 [AZD1480] (10 nM),98.8
2,CC1(COc2ccc3c(c2)ncn3-c2ccc3cccc(N4CCC(N)CC4)c3n2)COC1 [Crenolanib] (100 nM),108
3,Cn1cc(C2=C(c3cn(C4CCN(Cc5ccccn5)CC4)c4ccccc34)C(=O)NC2=O)c2ccccc21 [Enzastaurin] (100 nM),102
4,Nc1ccn([C@@H]2O[C@H](CO)[C@@H](O)C2(F)F)c(=O)n1 [Gemcitabine] (10 nM),105
5,C=CCn1c(=O)c2cnc(Nc3ccc(N4CCN(C)CC4)cc3)nc2n1-c1cccc(C(C)(C)O)n1 [MK1775] (100 nM),96.5
6,CO[C@@H]1[C@H](N(C)C(=O)c2ccccc2)C[C@H]2O[C@]1(C)n1c3ccccc3c3c4c(c5c6ccccc6n2c5c31)C(=O)NC4 [Midostaurin] (100 nM),102
7,CCNC(=O)c1noc(-c2cc(C(C)C)c(O)cc2O)c1-c1ccc(CN2CCOCC2)cc1 [NVP-AUY922] (10 nM),101
8,O=[N+]([O-])c1ccc2c(c1)S(=O)(=O)C=C2 [Stattic] (500 nM),103
9,O=C(CCCCCCC(=O)Nc1ccccc1)NO [Vorinostat] (100 nM),102

# Test system: HDQ-P1
# Test: as above
# Conditions: incubation time: 72 h
# How it was run: as §1
row,SMILES,normalised response [%]
1,Cc1cc(Nc2nc(N[C@@H](C)c3ncc(F)cn3)ncc2Cl)[nH]n1 [AZD1480] (10 nM),97.8
2,CC1(COc2ccc3c(c2)ncn3-c2ccc3cccc(N4CCC(N)CC4)c3n2)COC1 [Crenolanib] (100 nM),105
3,Cn1cc(C2=C(c3cn(C4CCN(Cc5ccccn5)CC4)c4ccccc34)C(=O)NC2=O)c2ccccc21 [Enzastaurin] (100 nM),114
4,C=CCn1c(=O)c2cnc(Nc3ccc(N4CCN(C)CC4)cc3)nc2n1-c1cccc(C(C)(C)O)n1 [MK1775] (100 nM),98.5
5,CO[C@@H]1[C@H](N(C)C(=O)c2ccccc2)C[C@H]2O[C@]1(C)n1c3ccccc3c3c4c(c5c6ccccc6n2c5c31)C(=O)NC4 [Midostaurin] (100 nM),103
6,CCNC(=O)c1noc(-c2cc(C(C)C)c(O)cc2O)c1-c1ccc(CN2CCOCC2)cc1 [NVP-AUY922] (10 nM),104
7,O=[N+]([O-])c1ccc2c(c1)S(=O)(=O)C=C2 [Stattic] (500 nM),104
8,O=C(CCCCCCC(=O)Nc1ccccc1)NO [Vorinostat] (100 nM),102

# Test system: CAL-120
# Test: as above
# Conditions: incubation time: 72 h
# How it was run: as §1
row,SMILES,normalised response [%]
1,Cc1cc(Nc2nc(N[C@@H](C)c3ncc(F)cn3)ncc2Cl)[nH]n1 [AZD1480] (10 nM),95.6
2,CC1(COc2ccc3c(c2)ncn3-c2ccc3cccc(N4CCC(N)CC4)c3n2)COC1 [Crenolanib] (100 nM),97.2
3,Cn1cc(C2=C(c3cn(C4CCN(Cc5ccccn5)CC4)c4ccccc34)C(=O)NC2=O)c2ccccc21 [Enzastaurin] (100 nM),104
4,Nc1ccn([C@@H]2O[C@H](CO)[C@@H](O)C2(F)F)c(=O)n1 [Gemcitabine] (10 nM),99.7
5,C=CCn1c(=O)c2cnc(Nc3ccc(N4CCN(C)CC4)cc3)nc2n1-c1cccc(C(C)(C)O)n1 [MK1775] (100 nM),97.8
6,CO[C@@H]1[C@H](N(C)C(=O)c2ccccc2)C[C@H]2O[C@]1(C)n1c3ccccc3c3c4c(c5c6ccccc6n2c5c31)C(=O)NC4 [Midostaurin] (100 nM),74.9
7,CCNC(=O)c1noc(-c2cc(C(C)C)c(O)cc2O)c1-c1ccc(CN2CCOCC2)cc1 [NVP-AUY922] (10 nM),93
8,O=[N+]([O-])c1ccc2c(c1)S(=O)(=O)C=C2 [Stattic] (500 nM),99.8
9,O=C(CCCCCCC(=O)Nc1ccccc1)NO [Vorinostat] (100 nM),90.8

# Test system: CAL-148
# Test: as above
# Conditions: incubation time: 72 h
# How it was run: as §1
row,SMILES,normalised response [%]
1,Cc1cc(Nc2nc(N[C@@H](C)c3ncc(F)cn3)ncc2Cl)[nH]n1 [AZD1480] (10 nM),66.3
2,CC1(COc2ccc3c(c2)ncn3-c2ccc3cccc(N4CCC(N)CC4)c3n2)COC1 [Crenolanib] (100 nM),82.2
3,Cn1cc(C2=C(c3cn(C4CCN(Cc5ccccn5)CC4)c4ccccc34)C(=O)NC2=O)c2ccccc21 [Enzastaurin] (100 nM),95
4,Nc1ccn([C@@H]2O[C@H](CO)[C@@H](O)C2(F)F)c(=O)n1 [Gemcitabine] (10 nM),36.9
5,C=CCn1c(=O)c2cnc(Nc3ccc(N4CCN(C)CC4)cc3)nc2n1-c1cccc(C(C)(C)O)n1 [MK1775] (100 nM),73.4
6,CO[C@@H]1[C@H](N(C)C(=O)c2ccccc2)C[C@H]2O[C@]1(C)n1c3ccccc3c3c4c(c5c6ccccc6n2c5c31)C(=O)NC4 [Midostaurin] (100 nM),97.8
7,CCNC(=O)c1noc(-c2cc(C(C)C)c(O)cc2O)c1-c1ccc(CN2CCOCC2)cc1 [NVP-AUY922] (10 nM),107
8,O=[N+]([O-])c1ccc2c(c1)S(=O)(=O)C=C2 [Stattic] (500 nM),102
9,O=C(CCCCCCC(=O)Nc1ccccc1)NO [Vorinostat] (100 nM),102

# Test system: MFM-223
# Test: as above
# Conditions: incubation time: 72 h
# How it was run: as §1
row,SMILES,normalised response [%]
1,Cc1cc(Nc2nc(N[C@@H](C)c3ncc(F)cn3)ncc2Cl)[nH]n1 [AZD1480] (10 nM),96.4
2,CC1(COc2ccc3c(c2)ncn3-c2ccc3cccc(N4CCC(N)CC4)c3n2)COC1 [Crenolanib] (100 nM),94.3
3,Cn1cc(C2=C(c3cn(C4CCN(Cc5ccccn5)CC4)c4ccccc34)C(=O)NC2=O)c2ccccc21 [Enzastaurin] (100 nM),107
4,Nc1ccn([C@@H]2O[C@H](CO)[C@@H](O)C2(F)F)c(=O)n1 [Gemcitabine] (10 nM),95.2
5,C=CCn1c(=O)c2cnc(Nc3ccc(N4CCN(C)CC4)cc3)nc2n1-c1cccc(C(C)(C)O)n1 [MK1775] (100 nM),97.1
6,CO[C@@H]1[C@H](N(C)C(=O)c2ccccc2)C[C@H]2O[C@]1(C)n1c3ccccc3c3c4c(c5c6ccccc6n2c5c31)C(=O)NC4 [Midostaurin] (100 nM),103
7,CCNC(=O)c1noc(-c2cc(C(C)C)c(O)cc2O)c1-c1ccc(CN2CCOCC2)cc1 [NVP-AUY922] (10 nM),106
8,O=[N+]([O-])c1ccc2c(c1)S(=O)(=O)C=C2 [Stattic] (500 nM),96.9
9,O=C(CCCCCCC(=O)Nc1ccccc1)NO [Vorinostat] (100 nM),99.6

# Test system: MDA-MB-468
# Test: as above
# Conditions: incubation time: 72 h
# How it was run: as §1
row,SMILES,normalised response [%]
1,Cc1cc(Nc2nc(N[C@@H](C)c3ncc(F)cn3)ncc2Cl)[nH]n1 [AZD1480] (10 nM),136
2,CC1(COc2ccc3c(c2)ncn3-c2ccc3cccc(N4CCC(N)CC4)c3n2)COC1 [Crenolanib] (100 nM),99.6
3,Cn1cc(C2=C(c3cn(C4CCN(Cc5ccccn5)CC4)c4ccccc34)C(=O)NC2=O)c2ccccc21 [Enzastaurin] (100 nM),56.9
4,Nc1ccn([C@@H]2O[C@H](CO)[C@@H](O)C2(F)F)c(=O)n1 [Gemcitabine] (10 nM),48.3
5,C=CCn1c(=O)c2cnc(Nc3ccc(N4CCN(C)CC4)cc3)nc2n1-c1cccc(C(C)(C)O)n1 [MK1775] (100 nM),76.1
6,CO[C@@H]1[C@H](N(C)C(=O)c2ccccc2)C[C@H]2O[C@]1(C)n1c3ccccc3c3c4c(c5c6ccccc6n2c5c31)C(=O)NC4 [Midostaurin] (100 nM),137
7,CCNC(=O)c1noc(-c2cc(C(C)C)c(O)cc2O)c1-c1ccc(CN2CCOCC2)cc1 [NVP-AUY922] (10 nM),107
8,O=[N+]([O-])c1ccc2c(c1)S(=O)(=O)C=C2 [Stattic] (500 nM),133
